Experimental data reported in US20080193563A1, “HARNESSING WNT SIGNALING TO RESTRICT HIV REPLICATION” (priority 2006, published 2008).

Experiments:
[1] = tested on: HIV reverse transcription in U87MG; assay: Early and late HIV reverse transcription in U87MG, real-time PCR; assay type: cell-based; details: IFNγ pre-treated 24 h
Protocol: FIG. 31 Comparative analysis of early and late HIV reverse transcription (RT) between infected untreated and infected IFN-γ treated astrocytes. U87MG cells were left untreated or treated with IFN-γ prior to HIV infection as described in Materials and Methods. Total DNA was isolated and amplified for tierh early HIV reverse transcription (reverse transcription initiation) using primer pair R and U5 at 24 h postinfection or late HIV transcription using primer pair R and 5NC at 96 h postinfection. (A) Comparison of amplified HIV DNA between untreated and IFN-γ-treated cultures. […] Rn stands for reading normalized, which equals the SyberGreen value divided by the ROX reference dye value.
Restriction to HIV replication is not at the level of HIV entry and reverse transcription. […] Early HIV reverse transcription was evaluated by real-time PCR at […] post-infection by amplifying with the R/U5 primer pairs, which detect negative-strand “strong-stop” DNA indicative of reverse transcription initiation. […]
Levels of HIV reverse transcription are similar between untreated and IFN-γ-treated astrocytes. […] Early HIV reverse transcription was evaluated by real-time PCR at 24 h postinfection by amplification with the R/U5 primer pair, which detects negative-strand “strong-stop” DNA indicative of reverse transcription initiation). […]

[2] = tested on: CD4, hMR, CCR1, D6 on U87MG; assay: HIV receptor and chemokine co-receptor expression on U87MG by flow cytometry; assay type: cell-based, human
Protocol: U87MG (A) and HFA (B) were left untreated or treated GM-CSF (50 ng/ml) or IFNγ (100 ng/ml) for 24 h. Expression of receptors on the x-axis was measured by flow cytometry. Isotype refers to mouse IgG. Data is representative of three experiments. Error bars represent standard deviation of the mean. (C). IFNγ up-regulates D6 on U87MG cells. U87MG were left untreated or treated with IFNγ. After 3 days, the cells were immunostained with anti-D6 or isotype antibodies. The first histogram (peak) represents isotype control; the dark shaded histogram represents untreated cultures, and the third histogram (peak) represents IFNγ-treated cultures. Data is typical of quadruplet experiments.
Because IFNγ was a potent cytokine in inducing HIV infection of astrocytes, it was determined whether IFNγ treatment modulated key HIV receptors CD4, human mannose receptor D6 and co-receptors (CCR1, CCR2, CCR3, CXCR4, and CCR5) for HIV infection. U87MG is human mannose receptor (hMR) […] (FIG. 5). However, hMR was not detected on HFA, which may be regulated by the differentiation stage of the HFA (FIG. 5 (B)). CD4 and hMR expression in both U87MG and HFA was not augmented by IFNγ or GM-CSF (FIG. 5(A)-(B)). […] HFA were positive for CXCR4 (12%), but its expression was not augmented by GM-CSF or IFNγ treatment (FIG. 5B). IFNγ was reported to enhance CXCR4 and CCR5 expression on simian adult astrocytes, which is in contrast to data on human fetal astrocytes highlighting a discrepancy between simian adult and human fetal astrocytes. […] Infection of U87MG and HFA with a T-tropic isolate (IIIB), while it was productive, was not enhanced by cytokine pre-treatment. This may be a consequence of the laboratory adapted HIV IIIB, therefore primary T-tropic or dual tropic strains may still be responsive to IFNγ pre-treatment of astrocytes. Recently, the CC chemokine receptor D6 was identified as a functional co-receptor for primary HIV infection of astrocytes.

IFNγ: cytokine secreted by lymphocytes, activated microglia and astrocytes; used to prime astrocytes
Early HIV reverse transcription DNA (R/U5) vs untreated [1]: similar
Late HIV reverse transcription DNA (R/5NC) vs untreated [1]: similar
CD4 and hMR expression [2]: not augmented
Up-regulation of CCR1 expression ([2]; 24 h treatment): 4 fold
Up-regulation of D6 expression ([2]; 3 days): 6 fold
